Measurements reported in PubChem BioAssay AID2060338 (Molecular Pharmacology Branch, DTP, NCI, 2025).
pIC50: −log10 of the molar value. Values joined by “and” are separate entries in the source; they are usually repeats but may differ in a detail not shown here. Equal entries are not always repeated.

Tested on: 556581-035-R-J1-PDC spheroids with HUVEC/MSC, viability
Assay: Anticancer human tumor 556581-035-R-J1-PDC patient-derived ovarian carcinoma cell line growth inhibition [IpAb]
Settings: for viability, T/C: stronger effect = lower value
Text: Combinatorial screen of targeted agents with ipatasertib and abemaciclib in multi-cell type tumor spheroids
A high-throughput screen of multi-cell type tumor spheroids was designed to identify active combinations of targeted small molecules and ipatasertib or abemaciclib. Complex spheroids include a stromal component modeled by human endothelial cells (HUVEC) and fibroblasts modeled by human mesenchymal stem cells (MSCs). The concentration ranges selected for each drug and investigational agent were based upon clinically achievable concentrations if the clinical Cmax of the agent was known.
Compounds. The drugs and investigational agents: ipatasertib (NSC767898), abemaciclib(NSC768073), selumetinib (NSC741078), trametinib (758246), adavosertib (NSC754352), everolimus (NSC733504), sapanisertib (NSC764658), vemurafenib (NSC761431), venetoclax (NSC766270), copanlisib (NSC809693), apelisib (NSC765974), palbociblib (NSC758247), vemurafenib (NSC761431), dabrafenib (NSC764134), ravoxertinib (NSC781343), BMS-387032 (NSC767048), sotorasib (NSC818433), talazoparib (NSC767125) and afursertib (NSC778305), were obtained from the National Cancer Institute (NCI) Developmental Therapeutics Program Chemical Repository. The FDA-approved anticancer drug set is available from the NCI Developmental Therapeutics Program. […] The stock solutions were prepared in dimethyl sulfoxide (DMSO, Sigma-Aldrich, St. Louis, MO, cat. D2650) at 800-fold the tested concentration and stored at -70 degrees C prior to their use. All drugs and investigational agents were tested over a range starting from a high concentration at or near the clinical Cmax and decreasing in half-log increments. If the clinical Cmax for an agent had not been determined, the highest concentration tested was 10 microM.
NCI60 Cell Culture. NCI60 cell lines were obtained from the NCI Developmental Therapeutics Program Tumor Repository. For each lot of cells, the Repository performed Applied Biosystems AmpFLSTR Identifiler testing with PCR amplification to confirm consistency with the published Identifier STR profile for each cell line. Cells were kept in continuous culture for no more than 20 passages. The optimal seeding densities for each of the cell lines at each time point assessed were determined prior to performing the concentration response studies. Briefly, the NCI60 human tumor lines were grown as monolayers in RPMI 1640 medium supplemented with 10% FBS and 2 mmol/L L-glutamine.
An additional 9 lines were from the NCI60 cell line panel including MDA-MB-231 breast carcinoma, MDA-MB-468 breast carcinoma, MCF7 breast carcinoma, Hs578T breast carcinoma, MALME-3M melanoma, SK-MEL-2 melanoma, SK-OV-3 ovarian carcinoma, DU-145 prostate carcinoma, PC-3 prostate carcinoma, all cell lines along with major genetic alterations are listed on Table 2. Pooled donor human umbilical vein endothelial cells (HUVEC, Lonza, cat. CC-2519) and human mesenchymal stem cells (hMSC, Lonza, cat. PT-2501) were purchased from Lonza (Walkersville, MD).
PDMR cell lines were grown in complete medium (DC medium): Dulbecco's modified Eagle's medium (DMEM)/F12 supplemented with 5% fetal bovine serum (FBS), 2 mM L-glutamine, 100 U/mL penicillin and 100 µg/ml streptomycin, 0.4 µg/ml hydrocortisone, 10 ng/ml epidermal growth factor (EGF) recombinant human protein, 24 µg/mL adenine, and 0.1 mg/mL primocin. During culture from frozen stock vials, PDMR cells were cultured in the same medium containing 10 µM Y-27632 (see Table 3). The PDCs were cultured in complete DMEM/F12 media without 10 microM Y-27632 dihydrochloride for at least two passages prior to the screen. The pooled donor HUVEC and hMSC were cultured in endothelial cell growth medium 2 (PromoCell, Heidelberg, Germany, cat. C-22011) and mesenchymal stem cell growth medium 2 (PromoCell, cat. C-28009), respectively. For all experiments, HUVEC and hMSC were used at passages </=5.
[…]

[1] = curve of first compound, second compound 0.01 µM
[2] = curve of first compound, second compound 0.0316 µM
[3] = curve of first compound, second compound 0.1 µM
[4] = curve of first compound, second compound 0.316 µM
[5] = curve of first compound, second compound 1 µM
[6] = second compound 0.01 µM, first compound 0.0316 µM
[7] = second compound 0.01 µM, first compound 0.1 µM
[8] = second compound 0.0316 µM, first compound 0.0316 µM
[9] = second compound 0.0316 µM, first compound 0.1 µM
[10] = second compound 0.1 µM, first compound 0.0316 µM
[11] = second compound 0.1 µM, first compound 0.1 µM
[12] = second compound 0.316 µM, first compound 0.0316 µM
[13] = second compound 0.316 µM, first compound 0.1 µM
[14] = second compound 1 µM, first compound 0.0316 µM
[15] = second compound 1 µM, first compound 0.1 µM
[16] = second compound 0.1 µM, first compound 0.316 µM
[17] = second compound 0.1 µM, first compound 1 µM
[18] = second compound 0.1 µM, first compound 3.16 µM
[19] = second compound 0.1 µM, first compound 10 µM
[20] = second compound 0.316 µM, first compound 0.316 µM
[21] = second compound 0.316 µM, first compound 1 µM
[22] = second compound 0.316 µM, first compound 3.16 µM
[23] = second compound 0.316 µM, first compound 10 µM
[24] = second compound 1 µM, first compound 0.316 µM
[25] = second compound 1 µM, first compound 1 µM
[26] = second compound 1 µM, first compound 3.16 µM
[27] = second compound 1 µM, first compound 10 µM
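Note: spheroids exposed to compounds for 7 days before readout.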

SMILES: Cn1ncnc1[C@H]1c2n[nH]c(=O)c3cc(F)cc(c23)N[C@@H]1c1ccc(F)cc1 + CCN1CCN(Cc2ccc(Nc3ncc(F)c(-c4cc(F)c5nc(C)n(C(C)C)c5c4)n3)nc2)CC1
- pIC50 [1]: < 7.00
- pIC50 [2]: < 7.00
- pIC50 [3]: < 7.00
- pIC50 [4]: 7.08
- pIC50 [5]: 8.78
- viability, T/C (second compound 0.01 µM, first compound 0.000316 µM): 80.6%
- viability, T/C (second compound 0.01 µM, first compound 0.001 µM): 107%
- viability, T/C (second compound 0.01 µM, first compound 0.00316 µM): 80.9%
- viability, T/C (second compound 0.01 µM, first compound 0.01 µM): 83.6%
- viability, T/C [6]: 84.1%
- viability, T/C [7]: 63.7%
- viability, T/C (second compound 0.0316 µM, first compound 0.000316 µM): 84.9%
- viability, T/C (second compound 0.0316 µM, first compound 0.001 µM): 82.8%
- viability, T/C (second compound 0.0316 µM, first compound 0.00316 µM): 90.6%
- viability, T/C (second compound 0.0316 µM, first compound 0.01 µM): 83.2%
- viability, T/C [8]: 61.3%
- viability, T/C [9]: 60%
- viability, T/C (second compound 0.1 µM, first compound 0.000316 µM): 67.7%
- viability, T/C (second compound 0.1 µM, first compound 0.001 µM): 81.3%
- viability, T/C (second compound 0.1 µM, first compound 0.00316 µM): 84.9%
- viability, T/C (second compound 0.1 µM, first compound 0.01 µM): 83.2%
- viability, T/C [10]: 63.1%
- viability, T/C [11]: 55.2%
- viability, T/C (second compound 0.316 µM, first compound 0.000316 µM): 70.8%
- viability, T/C (second compound 0.316 µM, first compound 0.001 µM): 77.8%
- viability, T/C (second compound 0.316 µM, first compound 0.00316 µM): 69.8%
- viability, T/C (second compound 0.316 µM, first compound 0.01 µM): 79.1%
- viability, T/C [12]: 59.2%
- viability, T/C [13]: 48.3%
- viability, T/C (second compound 1 µM, first compound 0.000316 µM): 51.5%
- viability, T/C (second compound 1 µM, first compound 0.001 µM): 59.2%
- viability, T/C (second compound 1 µM, first compound 0.00316 µM): 43.1%
- viability, T/C (second compound 1 µM, first compound 0.01 µM): 37.3%
- viability, T/C [14]: 41.9%
- viability, T/C [15]: 44.4%

SMILES: Cn1ncc(Cl)c1-c1cc(C(=O)NC(CN)Cc2cccc(F)c2)sc1Cl (centres undefined) + CC(C)NCC(C(=O)N1CCN(c2ncnc3c2C(C)CC3O)CC1)c1ccc(Cl)cc1
- pIC50 [3]: 5.73
- pIC50 [4]: 5.62
- pIC50 [5]: 5.72
- pIC50 (curve of first compound, second compound 3.16 µM): 5.88
- pIC50 (curve of first compound, second compound 10 µM): 5.92
- viability, T/C [10]: 84%
- viability, T/C [11]: 81.2%
- viability, T/C [16]: 68.5%
- viability, T/C [17]: 63.4%
- viability, T/C [18]: 40.9%
- viability, T/C [19]: 0.2%
- viability, T/C [12]: 37.8%
- viability, T/C [13]: 79.6%
- viability, T/C [20]: 67.2%
- viability, T/C [21]: 56.8%
- viability, T/C [22]: 47.3%
- viability, T/C [23]: 0.21%
- viability, T/C [14]: 70.2%
- viability, T/C [15]: 67.2%
- viability, T/C [24]: 67.6%
- viability, T/C [25]: 55.3%
- viability, T/C [26]: 45.1%
- viability, T/C [27]: 0.18%
- viability, T/C (second compound 3.16 µM, first compound 0.0316 µM): 55.3%
- viability, T/C (second compound 3.16 µM, first compound 0.1 µM): 74.6%
- viability, T/C (second compound 3.16 µM, first compound 0.316 µM): 54.4%
- viability, T/C (second compound 3.16 µM, first compound 1 µM): 54.2%
- viability, T/C (second compound 3.16 µM, first compound 3.16 µM): 37.8%
- viability, T/C (second compound 3.16 µM, first compound 10 µM): 1.42%
- viability, T/C (second compound 10 µM, first compound 0.0316 µM): 51.8%
- viability, T/C (second compound 10 µM, first compound 0.1 µM): 55.7%
- viability, T/C (second compound 10 µM, first compound 0.316 µM): 51.5%
- viability, T/C (second compound 10 µM, first compound 1 µM): 53.4%
- viability, T/C (second compound 10 µM, first compound 3.16 µM): 32.5%
- viability, T/C (second compound 10 µM, first compound 10 µM): 4.77%

SMILES: Cn1ncc(Cl)c1-c1cc(C(=O)NC(CN)Cc2cccc(F)c2)sc1Cl (centres undefined) + CCN1CCN(Cc2ccc(Nc3ncc(F)c(-c4cc(F)c5nc(C)n(C(C)C)c5c4)n3)nc2)CC1
- pIC50 [1]: 5.79
- pIC50 [2]: 5.74
- pIC50 [3]: 5.81
- pIC50 [4]: 5.93
- pIC50 [5]: 6.40
- viability, T/C [6]: 96%
- viability, T/C [7]: 81.6%
- viability, T/C (second compound 0.01 µM, first compound 0.316 µM): 64.2%
- viability, T/C (second compound 0.01 µM, first compound 1 µM): 60.7%
- viability, T/C (second compound 0.01 µM, first compound 3.16 µM): 44.3%
- viability, T/C (second compound 0.01 µM, first compound 10 µM): 0.26%
- viability, T/C [8]: 85.4%
- viability, T/C [9]: 78.5%
- viability, T/C (second compound 0.0316 µM, first compound 0.316 µM): 79.1%
- viability, T/C (second compound 0.0316 µM, first compound 1 µM): 56.9%
- viability, T/C (second compound 0.0316 µM, first compound 3.16 µM): 41.1%
- viability, T/C (second compound 0.0316 µM, first compound 10 µM): 0.2%
- viability, T/C [10]: 91.4%
- viability, T/C [11]: 82.2%
- viability, T/C [16]: 63.9%
- viability, T/C [17]: 54.2%
- viability, T/C [18]: 47.1%
- viability, T/C [19]: 0.18%
- viability, T/C [12]: 88.5%
- viability, T/C [13]: 92.3%
- viability, T/C [20]: 54.8%
- viability, T/C [21]: 60.6%
- viability, T/C [22]: 31.5%
- viability, T/C [23]: 12.4%
- viability, T/C [14]: 56.7%
- viability, T/C [15]: 54.3%
- viability, T/C [24]: 50.5%
- viability, T/C [25]: 44.7%
- viability, T/C [26]: 25.6%
- viability, T/C [27]: 0.54%

SMILES: CC(C)n1nc(-c2ccc3oc(N)nc3c2)c2c(N)ncnc21
- viability, T/C (compound 0.000316 µM): 99.2% and 88.1%
- viability, T/C (compound 0.001 µM): 62.2% and 89.2%
- viability, T/C (compound 0.00316 µM): 70.7% and 66.5%
- viability, T/C (compound 0.01 µM): 45.7% and 44.2%
- viability, T/C (compound 0.0316 µM): 34.7% and 34%
- viability, T/C (compound 0.1 µM): 25.1% and 23.4%
- pIC50 (curve of compound): 8.11

SMILES: Cc1nc(NC(=O)N2CCCC2C(N)=O)sc1-c1ccnc(C(C)(C)C(F)(F)F)c1 (centres undefined)
- viability, T/C (compound 0.0316 µM): 84.4% and 80.2%
- viability, T/C (compound 0.1 µM): 73.3% and 72.6%
- viability, T/C (compound 0.316 µM): 58.8% and 56.2%
- viability, T/C (compound 1 µM): 40.9% and 42%
- viability, T/C (compound 3.16 µM): 28.5% and 31.8%
- viability, T/C (compound 10 µM): 9.2% and 11.3%
- pIC50 (curve of compound): 6.23 and 6.22
